Laboratory results published in patent US20170172955A1, “Treatment of Mixed Dyslipidemia” (priority 2015, published 2017).
Where two headings read alike, the source gives them in different places.

Experiments:
CYP2E1 = CYP2E1 (Homo sapiens, UniProt P05181); assay: biochemical
Method: (§1) Human livers, HLM141, HLM143, and HLM144 were selected from the University of Washington Human Liver Bank for this study. […] The actual concentrations used for each of the other probes are specified below. […] The seven isoforms and the metabolic pathway of each of the probes used to monitor specific isoform activity are listed below.
CYP2E1: The formation of p-nitrocatechol from p-nitrophenol (40 μM). Amounts of product formed are monitored by HPLC.

CYP2C19 = CYP2C19 (Homo sapiens, UniProt P33261); assay: biochemical
Sequence of CYP2C19 (P33261 whole entry): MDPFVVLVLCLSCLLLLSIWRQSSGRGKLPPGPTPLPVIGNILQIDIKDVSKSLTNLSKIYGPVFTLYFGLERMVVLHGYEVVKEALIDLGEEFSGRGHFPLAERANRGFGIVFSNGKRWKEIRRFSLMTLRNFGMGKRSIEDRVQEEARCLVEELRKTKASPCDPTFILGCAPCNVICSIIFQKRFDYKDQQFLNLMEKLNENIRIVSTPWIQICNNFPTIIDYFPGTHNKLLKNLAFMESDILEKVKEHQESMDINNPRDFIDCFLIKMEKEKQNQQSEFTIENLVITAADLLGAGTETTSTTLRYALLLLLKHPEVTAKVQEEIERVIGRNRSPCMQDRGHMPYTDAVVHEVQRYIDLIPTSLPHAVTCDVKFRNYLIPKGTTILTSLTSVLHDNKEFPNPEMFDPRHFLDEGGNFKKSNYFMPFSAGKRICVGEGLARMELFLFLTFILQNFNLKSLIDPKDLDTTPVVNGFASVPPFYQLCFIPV
Method: as §1
CYP2C19: The 4′-hydroxylation of (S)-mephenytoin (50 μM). The reaction is monitored by quantitative GC/MS using mephenytoin-(d3-methyl) as the internal standard.

CYP2D6 = CYP2D6 (Homo sapiens, UniProt P10635); assay: biochemical
Sequence of CYP2D6 (P10635 whole entry): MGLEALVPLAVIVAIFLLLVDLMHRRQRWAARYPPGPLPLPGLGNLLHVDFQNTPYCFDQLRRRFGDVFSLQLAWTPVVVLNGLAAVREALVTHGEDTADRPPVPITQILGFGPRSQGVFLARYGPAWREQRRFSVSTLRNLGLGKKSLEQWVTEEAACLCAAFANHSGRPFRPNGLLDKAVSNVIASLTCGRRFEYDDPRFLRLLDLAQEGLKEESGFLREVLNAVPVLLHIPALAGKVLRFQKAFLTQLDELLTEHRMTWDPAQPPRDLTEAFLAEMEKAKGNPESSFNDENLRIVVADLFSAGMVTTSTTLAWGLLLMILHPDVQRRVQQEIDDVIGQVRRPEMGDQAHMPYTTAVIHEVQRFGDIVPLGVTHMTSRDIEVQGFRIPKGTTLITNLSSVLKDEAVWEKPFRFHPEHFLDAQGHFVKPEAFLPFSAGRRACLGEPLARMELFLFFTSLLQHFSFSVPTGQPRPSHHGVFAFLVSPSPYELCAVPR
Method: as §1
CYP2D6: The O-demethylation of dextromethorphan (5 μM). The reaction is monitored by high performance liquid chromatography (HPLC) using florescence detection.

CYP1A2 = CYP1A2 (Homo sapiens, UniProt P05177); assay: biochemical
Sequence of CYP1A2 (P05177 whole entry): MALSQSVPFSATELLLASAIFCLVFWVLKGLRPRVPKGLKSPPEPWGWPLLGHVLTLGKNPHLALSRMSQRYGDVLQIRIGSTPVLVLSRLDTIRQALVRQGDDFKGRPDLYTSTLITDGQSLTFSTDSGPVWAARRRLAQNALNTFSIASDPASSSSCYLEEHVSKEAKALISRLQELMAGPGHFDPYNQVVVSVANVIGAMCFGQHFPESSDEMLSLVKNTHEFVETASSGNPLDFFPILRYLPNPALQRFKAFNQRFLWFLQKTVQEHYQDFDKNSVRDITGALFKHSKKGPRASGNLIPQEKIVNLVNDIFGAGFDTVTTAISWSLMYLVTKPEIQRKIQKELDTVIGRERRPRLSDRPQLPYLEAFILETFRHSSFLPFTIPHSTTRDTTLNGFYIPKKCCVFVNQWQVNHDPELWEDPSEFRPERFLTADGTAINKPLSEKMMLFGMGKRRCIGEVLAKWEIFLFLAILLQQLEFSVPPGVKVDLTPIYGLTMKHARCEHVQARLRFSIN
Method: as §1
CYP1A2: The 6-hydroxylation of high concentrations (0.5 mM) of (R)-warfarin. The reaction is monitored by quantitative gas chromatographic/mass spectrometric (GC/MS) using 6-hydroxywarfarin-(d5-phenyl) as the internal standard.

[1] = test system: cholesterol and triglyceride synthesis; assay: Inhibition of plasma and hepatic cholesterol and triglyceride synthesis in apoB100/Lp(a) mice; type: in vivo, mouse
Method: The apoB100/Lp(a) (cross of mice transgenic for human apoB100 and human apo(a)) mice) were obtained from Charles River. There were 8 animals per treatment group. […] Mice were acclimated for a minimum of 7 days to a reverse 12 hour light/12 hour dark cycle prior to administration of the first dose of test drug or vehicle. […] Test drugs and vehicle were given once daily. Thirty minutes after the eighth dose, 12.5 μCi [^14C] sodium acetate was administered. […] Individual plasma samples were acquired by placing whole blood samples into EDTA loaded centrifuge tubes and centrifuged. Plasma was transferred to new tubes and stored at −20° C. until assayed for [^14C] labeled cholesterol. Liver samples were flash frozen in liquid nitrogen and stored at −80° C. until assayed for [^14C] labeled cholesterol and triglycerides. Assay for plasma [^14C] labeled cholesterol. […] Additionally, 0.025 μCi […] (Perkin Elmer Life Sciences Inc. Boston, Mass.) was added to each sample, and to 2 or 3 spike controls in 7-mL scintillation vials, as an extraction internal standard. […] Samples were vortexed and saponified at 75° C. for 1 hour. After the samples cooled […] [^14C] labeled cholesterol was extracted with 2.5 mL petroleum ether per sample and shaken for 10 minutes, and then centrifuged for 10 minutes at 0° C. […] Each sample was then dissolved in 0.25 mL of 2 parts chloroform to 1 part per methanol by sonication. Five mL scintillant was added to each sample and the spike controls for direct [^3H] and [^14C] […] per minute (DPM) recording using a Packard 2500TR Tri-Carb Liquid Scintillation Analyzer. […] Assay for liver [^14C] labeled cholesterol and triglycerides. Frozen liver samples were kept on dry ice during sample weighing procedures and assay preparations. Each sample was homogenized in a solution of ice-cold methanol;0.5 N acetic acid. […] Samples were then vortexed and centrifuged for 20 minutes at 3000 rpm at room temperature to separate the phases. The lower chloroform layer was transferred to new vials. The remaining upper aqueous phase was extracted in like manner with 15 mL chloroform 2 more times. […] The aqueous phase was discarded and the chloroform phase was washed 2 times in like manner with 15 mL 1 part methanol to 1 part water, discarding the aqueous phase. The chloroform samples were evaporated under nitrogen gas, and resuspended in 600 μL chloroform and 30 μL removed for scintillation counting. Sample volumes were adjusted for corrected percent recovery and a calculated volume to load based on total liver weight. Calculated volumes were spotted onto TLC plates and dried in an 80° C. oven. After the plates had cooled to room temperature, they were developed in 102 mL isooctane:diethyl ether:glacial acetic acid, 75:25:2, respectively. Plates were dried in an 80° C. oven and allowed to cool to room temperature, wrapped in plastic wrap, and exposed to the phosphorimager screen. Imagequant software was used to quantitate cholesterol and triglyceride bands.

CYP2A6 = target: T1, CYP2A6 (Homo sapiens, UniProt P11509); assay: biochemical
T1 sequence (P11509 1-494): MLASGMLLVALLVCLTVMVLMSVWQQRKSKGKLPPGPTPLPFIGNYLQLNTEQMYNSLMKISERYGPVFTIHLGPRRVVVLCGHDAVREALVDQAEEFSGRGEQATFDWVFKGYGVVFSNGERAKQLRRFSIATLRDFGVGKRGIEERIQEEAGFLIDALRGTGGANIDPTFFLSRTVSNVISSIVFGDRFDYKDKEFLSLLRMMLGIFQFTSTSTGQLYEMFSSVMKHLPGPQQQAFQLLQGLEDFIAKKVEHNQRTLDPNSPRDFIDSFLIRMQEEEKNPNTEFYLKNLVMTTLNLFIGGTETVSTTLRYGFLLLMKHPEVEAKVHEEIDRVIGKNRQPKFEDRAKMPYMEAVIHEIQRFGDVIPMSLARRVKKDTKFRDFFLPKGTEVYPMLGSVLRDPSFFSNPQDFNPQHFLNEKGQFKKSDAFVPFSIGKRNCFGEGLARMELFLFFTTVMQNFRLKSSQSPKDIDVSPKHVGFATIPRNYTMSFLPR
Method: as §1
CYP2A6: The 7-hydroxylation of coumarin (4 μM). The reaction is monitored by HPLC using florescence detection.

[2] = 100 mg/kg oral once daily, 8 doses

Sequence of CYP2E1 (P05181 whole entry, canonical isoform): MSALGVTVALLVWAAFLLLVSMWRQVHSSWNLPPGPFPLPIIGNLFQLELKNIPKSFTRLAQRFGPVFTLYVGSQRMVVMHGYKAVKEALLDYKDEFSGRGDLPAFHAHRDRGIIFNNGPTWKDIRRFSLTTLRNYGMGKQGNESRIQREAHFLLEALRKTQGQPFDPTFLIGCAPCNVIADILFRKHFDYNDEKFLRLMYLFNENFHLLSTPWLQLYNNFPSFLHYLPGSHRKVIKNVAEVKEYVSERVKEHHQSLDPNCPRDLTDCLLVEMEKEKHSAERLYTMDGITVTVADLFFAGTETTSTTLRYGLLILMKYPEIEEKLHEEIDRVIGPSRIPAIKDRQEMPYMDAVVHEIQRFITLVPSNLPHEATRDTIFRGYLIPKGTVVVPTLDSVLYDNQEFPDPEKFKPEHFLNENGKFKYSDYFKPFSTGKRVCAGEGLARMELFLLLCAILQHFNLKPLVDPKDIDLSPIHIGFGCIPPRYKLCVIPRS

IC50 (CYP2E1): > 1500 µM
activity slightly enhanced (CYP2E1; human, 1500 μM): about 20%
IC50 (CYP2E1; human, microsomes): > 1500 µM
IC50 (CYP2C19): > 1500 µM
IC50 (CYP2C19; human, microsomes): > 1500 µM
IC50 (CYP2D6): > 1500 µM
IC50 (CYP2D6; human, microsomes): > 1500 µM
IC50 (CYP1A2): > 1500 µM
IC50 (CYP1A2; human, microsomes): > 1500 µM
IC50 (CYP2A6): > 1500 µM
IC50 (CYP2A6; human, microsomes): > 1500 µM
SMILES: CC(C)(CCCCOCCCCC(C)(C)C(=O)O)C(=O)O [Gemcabene, 6,6′-oxybis(2,2-dimethylhexanoic acid)]
inhibition of cholesterol synthesis as measured in plasma ([1]; 100 mg/kg): 60%
inhibition of newly synthesized cholesterol in liver tissue ([1]; 100 mg/kg): 65%
inhibition of newly synthesized triglycerides in liver tissue ([1]; 100 mg/kg): 66%
hepatic Cholesterol synthesis ([14C] sodium acetate), % Change from Vehicle [1, 2]: −65 ± 11 %
hepatic Triglycerides synthesis ([14C] sodium acetate), % Change from Vehicle [1, 2]: −66 ± 6 %
